According to patent EP0011663A1, “Toilet and dental preparations and their use for oral and dental hygiene” (UNILEVER PLC, priority 1978, dated 1980):
“Also recorded” adds a separate entry of the source. Read-outs that look alike come from different tables or passages of the source. Marks after values point to notes of the source that are not given here.

Key:
in vitro plaque [1] = assay: in vitro artificial plaque assay, treatment on the third day eliminated (Test 2); type: cell-based; settings: no treatment on third day
Protocol: An in vitro test was used in the Tests described herein for examining and effects of chemotherapeutic agents on plaque, and was carried out in accordance with the test reported in the Journal of Dental Research, Vol. 55, February 1976, page B286, by R T Evans, P J Baker, R A Coburn and R J Genco. An assay system for producing artificial plaque was used to screen antiplaque agents rapidly under conditions which simulated those found in the oral cavity. […] The assay gives reproducible, quantitative results and has the ability to distinguish between antibacterial agents which are clinically effective or non-effective as plaquae inhibitors. The in vitro plaque was formed at 37°C on uniformly- sized aluminium plummets which were first coated with saliva. The plummets were then placed in a growth medium inoculated with clinical plaque samples. After seven hours the plummets were suspended overnight in a 25;0 saliva mixture. On the second day, the plummets were immersed in a 50% saliva - 50% test compound mixture for one minute, placed in the growth medium for seven hours, retreated with the test mixture and suspended in 25% saliva overnight. The plummets were treated again on the third day and incubated in the growth medium for three hcurs. The plaques were removed from the plummets by donication into approximately six millilitres of buffer and quantitated by optical density (O.D.) in a Beckman DU spectrophotometer at 570 nm. […] Positive controls were included to determine relative activity. Comparisons of antiplaque activity were then made within a given experiment. At least five replicas per compound were examined. To test higher levels of tetradecylamine, the artificial plaque treatment previously described is eliminated on the third day to simulate infrequent use of the antiplaque products.

in vitro plaque [2] = assay: in vitro artificial plaque assay on saliva-coated aluminium plummets (Tests 1, 3, 4 and general statements); type: cell-based; settings: for minimum amount of the metal compound necessary to result in control of plaque: at the site of formation of the plaque, under the conditions of the tests
Protocol: An in vitro test was used in the Tests described herein for examining and effects of chemotherapeutic agents on plaque, and was carried out in accordance with the test reported in the Journal of Dental Research, Vol. 55, February 1976, page B286, by R T Evans, P J Baker, R A Coburn and R J Genco. An assay system for producing artificial plaque was used to screen antiplaque agents rapidly under conditions which simulated those found in the oral cavity.
The in vitro plaque was formed at 37°C on uniformly- sized aluminium plummets which were first coated with saliva. The plummets were then placed in a growth medium inoculated with clinical plaque samples. After seven hours the plummets were suspended overnight in a 25;0 saliva mixture. On the second day, the plummets were immersed in a 50% saliva - 50% test compound mixture for one minute, placed in the growth medium for seven hours, retreated with the test mixture and suspended in 25% saliva overnight. The plummets were treated again on the third day and incubated in the growth medium for three hcurs. The plaques were removed from the plummets by donication into approximately six millilitres of buffer and quantitated by optical density (O.D.) in a Beckman DU spectrophotometer at 570 nm.
Positive controls were included to determine relative activity. Comparisons of antiplaque activity were then made within a given experiment. At least five replicas per compound were examined.
The experiments are conducted in the same manner, in a 15% ethanol/water media at pH 5.
The effects of 0.060% tetradecylamine (TDA) 0.05 SnCl4, and the combination of SnCl and TDA at these concentrations are examined by the artificial plaque method previously described, all with 15% ethanol, at pH 2.6.

[3] = critical micellar concentration (CMC); type: physicochemical
rats = settings: orally in rats; Seventh Issue of the Merck Index; cited from earlier work
plaque = settings: clinical data, zinc salt alone; cited from earlier work
[4] = metal salt alone 0.10 % Wt./Vol., 15% ethanol/water, pH 5
[5] = amine in place of tetradecylamine, in combination with metal compounds (zinc or aluminium)
[6] = addition of CO2 to tetradecylamine
[7] = cation or anion as such, by the in vitro assay

Molecule: O.O.O.O.O.O.[Al+3].[Cl-].[Cl-].[Cl-] [AlCl3.6H2O]
- Average Optical Density (in vitro plaque [1]; AlCl3.6H2O 1.00 % Wt/Vol): 1.218
- % Reduction (in vitro plaque [1]; AlCl3.6H2O 1.00 % Wt/Vol, negative = weight gain): -9.4* %
- Average Optical Density (in vitro plaque [1]; AlCl3.6H2O .250 % Wt/Vol): 1.080
- % Reduction (in vitro plaque [1]; AlCl3.6H2O .250 % Wt/Vol, vs H2O control): 3.0%

Molecule: CCCCCCCCCCCCCCCC[n+]1ccccc1 [CPC, cetyl pyridinium chloride, reference compound]
- Average Optical Density (in vitro plaque [2]; pH 4.1): .515

Molecule: O.O.O.O.O.O.[Cl-].[Cl-].[Co+2] [CoCl2.6H2O, reference compound]
- % Reduction (in vitro plaque [2]; [4]): -25%

Molecule: O.O.O.O=[N+]([O-])[O-].O=[N+]([O-])[O-].[Cu+2] [Cu(NO3)2.3H2O, reference compound]
- % Reduction (in vitro plaque [2]; [4]): -10%

Molecule: CCCCCCCCCCCCN [Dodecylamine, reference compound]
- synergistic plaque reductions (in vitro plaque [2]; [5]): do not give synergistic plaque reductions
- synergistic plaque reductions (in vitro plaque [2]; amine in place of tetradecylamine, in combination with metal compounds (zinc or aluminium), listed as dodecylamine): not found

Molecule: O.O.O.O.O.O.[Cl-].[Cl-].[Cl-].[Fe+3] [FeCl3.6H2O, reference compound]
- % Reduction (in vitro plaque [2]; [4]): -38%

Molecule: CCCCCCCCCCCCCCCCCCN(C)C [N,N'-dimethyl-octadecylamine, reference compound]
- synergistic plaque reductions (in vitro plaque [2]; [5]): do not give synergistic plaque reductions

Molecule: O.O.O.O.O.O.[Cl][Ni][Cl] [NiCl2.6H2O, reference compound]
- % Reduction (in vitro plaque [2]; [4]): -17%

Molecule: O.O.O.O.O.[Cl][Sn]([Cl])([Cl])[Cl] [SnCl4.5H2O, reference compound]
- % Reduction (in vitro plaque [2]; SnCl4.5H2O 0.05 % Wt/Vol., 15% ethanol, pH 2.6, negative = weight gain): -8* %

Molecule: CCCCCCCCCCCCCCN [TDA, tetradecylamine, reference compound]
- Average Optical Density (in vitro plaque [1]; TDA .120 % Wt/Vol): .882
- inhibition at 0.12 % (in vitro plaque [1]; TDA .120 % Wt/Vol, vs H2O control, read-out: % Reduction): 20.7%
- inhibition at 0.06 % (in vitro plaque [2]; TDA 0.06 % Wt./Vol., 15% ethanol/water, pH 5, read-out: % Reduction): 19%
- inhibition at 0.06 % (in vitro plaque [2]; TDA 0.06 % Wt/Vol., 15% ethanol, pH 2.6, read-out: % Reduction): 19%
- Average Optical Density (in vitro plaque [2]; TDA .060 % Wt/Vol, 15% ethanol, pH 4.1, O.D. at 570 nm): .571
- inhibition at 0.06 % (in vitro plaque [2]; TDA .060 % Wt/Vol, 15% ethanol, pH 4.1, vs H2O control, read-out: % Reduction): 18.8%
- antiplaque activity (in vitro plaque [2]; [6]): increased
- inhibition at 0.06 % (in vitro plaque [2]; dose-response curve, tetradecylamine 0.060%, no metal present, read-out: plaque reduction): 18%
- inhibition at 0.2 % (in vitro plaque [2]; dose-response curve, tetradecylamine 0.20%, no metal present, read-out: plaque reduction): 44%
- CMC [3, 6]: lowering
- critical micellar concentration (CMC) ([3]; in combination with selected metals): lowered

Molecule: [Cl-].[Cl-].[Zn+2] [ZnCl2, reference compound]
- Average Optical Density (in vitro plaque [2]; ZnCl2 .30 % Wt/Vol, 15% ethanol, pH 4.1, O.D. at 570 nm): .766
- % Reduction (in vitro plaque [2]; ZnCl2 .30 % Wt/Vol, 15% ethanol, pH 4.1, vs H2O control, negative = weight gain): -8.0* %

Molecule: [Al] [aluminium]
- LD50 (rats): 3-4 g/kg body weight
- minimum amount of the metal compound necessary to result in control of plaque (in vitro plaque [2]): about 0.001 molar

Molecule: [Ca+2] [calcium]
- synergistic plaque reductions (in vitro plaque [2]): have not been found to give synergistic plaque reductions; also recorded: did not give synergistic plaque reductions

Molecule: Cl [chloride]
- synergistic plaque reductions (in vitro plaque [2]; [7]): synergism has not been found; also recorded: synergism was not found

Molecule: [Co] [cobalt]
- LD50 (rats): 0.3-0.9 g/kg body weight
- minimum amount of the metal compound necessary to result in control of plaque (in vitro plaque [2]): ~500 µM

Molecule: [Cu] [copper]
- LD50 (rats): 0.3-0.9 g/kg body weight
- minimum amount of the metal compound necessary to result in control of plaque (in vitro plaque [2]): ~500 µM

Molecule: CCCCCCCCCCN [decylamine, reference compound]
- synergistic plaque reductions (in vitro plaque [2]; [5]): do not give synergistic plaque reductions

Molecule: CCCCCCCCCCCCN(C)C [dimethyldodecylamine, reference compound]
- synergistic plaque reductions (in vitro plaque [2]; [5]): do not give synergistic plaque reductions

Molecule: F [fluoride]
- synergistic plaque reductions (in vitro plaque [2]): synergism has not been found; also recorded: synergism was not found

Molecule: CCCCCCCCCCCCCCCCN [hexadecylamine, reference compound]
- synergistic plaque reductions (in vitro plaque [2]; [5]): do not give synergistic plaque reductions; also recorded: not found

Molecule: [HH] [hydrogen]
- synergistic plaque reductions (in vitro plaque [2]; [7]): have not been found to give synergistic plaque reductions; also recorded: did not give synergistic plaque reductions

Molecule: [Fe] [iron]
- LD50 (rats): 0.3-0.9 g/kg body weight
- minimum amount of the metal compound necessary to result in control of plaque (in vitro plaque [2]): ~500 µM

Molecule: [Mg+2] [magnesium]
- synergistic plaque reductions (in vitro plaque [2]; [7]): have not been found to give synergistic plaque reductions; also recorded: did not give synergistic plaque reductions

Molecule: [Ni] [nickel]
- LD50 (rats): 0.3-0.9 g/kg body weight
- minimum amount of the metal compound necessary to result in control of plaque (in vitro plaque [2]): ~500 µM

Molecule: O=[N+]([O-])O [nitrate]
- synergistic plaque reductions (in vitro plaque [2]): synergism has not been found; also recorded: synergism was not found

Molecule: [K+] [potassium]
- synergistic plaque reductions (in vitro plaque [2]; [7]): have not been found to give synergistic plaque reductions; also recorded: did not give synergistic plaque reductions

Molecule: [Na] [sodium]
- synergistic plaque reductions (in vitro plaque [2]; [7]): have not been found to give synergistic plaque reductions; also recorded: did not give synergistic plaque reductions

Molecule: O=S(=O)(O)O [sulphate]
- synergistic plaque reductions (in vitro plaque [2]; [7]): synergism has not been found; also recorded: synergism was not found

Molecule: [Sn] [tin]
- LD50 (rats): about 0.05 g/kg body weight
- minimum amount of the metal compound necessary to result in control of plaque (in vitro plaque [2]): ~500 µM

Molecule: [O-][n+]1ccccc1[S-].[O-][n+]1ccccc1[S-].[Zn+2] [zinc salt]
- reduction in plaque (plaque): about 5%

Molecule: [Zn] [zinc]
- LD50 (rats): 3-4 g/kg body weight
- minimum amount of the metal compound necessary to result in control of plaque (in vitro plaque [2]): about 0.001 molar

Molecule: phosphate
- synergistic plaque reductions (in vitro plaque [2]; [7]): synergism has not been found; also recorded: synergism was not found
